US20100166772A1, “ANTIGEN-BINDING PROTEINS TARGETING S. AUREUS ORF0657n” (priority 2007, published 2010)
Where “and” joins values, the source holds several entries; their conditions need not be identical. Equal entries are not always repeated.

Test system: S. aureus Becker
Experiment: Combination treatment vancomycin and mAb in cannulated rats, catheter bacteria load
Format: in vivo
Settings: for Catheter CFU Exp#1 / Catheter CFU Exp#2: 24 hours
Description: Cannulated rats were given vancomycin (20 mpk) sub. cu. at 1 hour (1 H) prior to iv challenge with 2−4×10^9 CFU of S. aureus Becker. At 1 H post challenge, the rats were injected with 6 mg/rat of either the mAb CS-D6, an isotype control mAb 20C2HA, or PBS. At 24 hours post challenge, the animals were sacrificed, the jugular vein catheters harvested and evaluated for the bacteria load on the catheter. Evaluation of catheters was performed by placement in selective broth medium, and outgrowth on the Piccolo incubation system. Outgrowth was compared to standard curves of S. aureus growth under the same conditions to calculate the number of CFU on the experimental catheters. In the first set of experiments (Table 15), small numbers of animals were used to test the system. In the second set of experiments (Table 16), larger numbers of rats were used. […] This model was designed to simulate a clinical situation in which a patient is undergoing surgery or other invasive procedure, and getting an empiric or prophylactic antibiotic. In the model, the mAb was injected after bacteria exposure, simulating adjunctive mAb treatment for infection during surgery.

[1] = Table 15, individual rats, vancomycin 20 mpk sub. cu. 1 H prior, 6 mg/rat mAb 1 H post challenge
[2] = Table 16, individual rats, larger numbers of rats, vancomycin 20 mpk, 6 mg/rat mAb

## CN[C@H](CC(C)C)C(=O)N[C@H]1C(=O)N[C@@H](CC(N)=O)C(=O)N[C@H]2C(=O)N[C@H]3C(=O)N[C@H](C(=O)N[C@H](C(=O)O)c4cc(O)cc(O)c4-c4cc3ccc4O)[C@H](O)c3ccc(c(Cl)c3)Oc3cc2cc(c3O[C@@H]2O[C@H](CO)[C@@H](O)[C@H](O)[C@H]2O[C@H]2C[C@](C)(N)[C@H](O)[C@H](C)O2)Oc2ccc(cc2Cl)[C@H]1O [Vancomycin + PBS, vancomycin]
[1]
  Catheter CFU Exp#1: 0 CFU and 38,725,264 CFU
  Catheter CFU Exp#2: 0 CFU (3×) and 217 CFU
[2]
  Catheter CFU Exp#1: 64 CFU and 309 CFU and 973 CFU and 5,015 CFU and 5,108 CFU and 7,353,005 CFU
  Catheter CFU Exp#2: 0 CFU and 63 CFU (2×) and 291 CFU and 6,517,926 CFU and 7,829,527 CFU
Table 16, catheters with no outgrowth assigned value of 10
  Catheter CFU Geo mean: 3,368 CFU
In vivo
  Catheter CFU Geo mean: 45 CFU
